These are literature values, as cited in patent US20170135989A1, “ALLISARTAN ISOPROXIL SOLID DISPERSION AND PHARMACEUTICAL COMPOSITION” (SHENZHEN SALUBRIS PHARMACEUTICALS CO., LTD, priority 2014, published 2017).

The structures appear in SMILES notation.

The conditions of series [1]: from CN200680000397.8.
The next series has as its target T1, angiotensin II receptor (Homo sapiens, UniProt P30556).
T1 sequence (P30556 1-359): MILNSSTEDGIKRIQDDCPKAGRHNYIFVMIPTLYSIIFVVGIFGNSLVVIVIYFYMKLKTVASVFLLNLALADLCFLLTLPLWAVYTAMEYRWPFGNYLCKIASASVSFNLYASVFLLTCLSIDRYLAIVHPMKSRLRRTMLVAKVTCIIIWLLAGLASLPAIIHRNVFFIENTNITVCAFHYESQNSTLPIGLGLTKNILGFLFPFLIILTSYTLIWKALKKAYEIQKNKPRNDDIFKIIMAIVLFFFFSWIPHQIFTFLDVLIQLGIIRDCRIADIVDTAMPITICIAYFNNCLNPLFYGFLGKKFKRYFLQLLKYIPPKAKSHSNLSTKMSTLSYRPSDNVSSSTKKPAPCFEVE
To be noted: from CN200680000397.8; compared with products of the same type (such as losartan).

For the compound `CCCCc1nc(Cl)c(C(=O)OCOC(=O)OC(C)C)n1Cc1ccc(-c2ccccc2-c2nnn[nH]2)cc1` [Allisartan isoproxil, 2-butyl-4-chloro-1-[2′-(1H-tetrazol-5-yl)-1,1′-biphenyl-methyl]-imidazole-5-carboxylic acid, 1-[(isopropoxy)-carbonyloxy]-, methyl ester], the Solubility in water entry was “low”. Also, the Toxicity entry in series [1] was “low toxicity”. Moreover, the Antihypertensive effect result on angiotensin II receptor is recorded as “better antihypertensive effect than products of the same type”.
